# Test results taken from patent publication US12403104B2, “Compounds and methods of promoting myelination” (Case Western Reserve University, priority 2016, dated 2025).
# Several values for one entry are separate records, joined by “and”; a condition that tells them apart may be missing. Equal entries are not always repeated. Structures can show the parent of a compound that is named as a salt. Where two headings read alike, the source gives them in different places.
# Columns and labels:
# rat CYP51 = biological target: T1, rat CYP51 (Rattus norvegicus, UniProt Q64654); experiment: CYP51 enzymatic assay (LC/MS quantitation of FF-MAS); type: biochemical
# T1 construct: purchased Cypex, Inc
# T1 sequence (Q64654 1-503): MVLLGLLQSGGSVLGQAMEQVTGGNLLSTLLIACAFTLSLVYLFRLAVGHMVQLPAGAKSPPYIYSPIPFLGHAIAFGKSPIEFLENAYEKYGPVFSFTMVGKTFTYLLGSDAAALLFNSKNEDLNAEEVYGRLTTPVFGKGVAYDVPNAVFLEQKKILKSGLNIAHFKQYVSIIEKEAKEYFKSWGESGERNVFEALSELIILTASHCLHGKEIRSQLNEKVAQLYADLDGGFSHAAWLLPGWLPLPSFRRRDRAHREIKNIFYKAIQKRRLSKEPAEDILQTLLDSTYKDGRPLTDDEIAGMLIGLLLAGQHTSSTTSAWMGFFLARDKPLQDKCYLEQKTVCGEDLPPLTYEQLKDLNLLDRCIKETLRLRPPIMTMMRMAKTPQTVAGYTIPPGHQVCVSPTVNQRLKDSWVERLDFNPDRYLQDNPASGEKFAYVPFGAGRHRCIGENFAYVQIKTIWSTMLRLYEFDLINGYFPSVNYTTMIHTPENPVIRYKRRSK
# Experimental: Finally, 15 μl of each reaction/isopropanol mixture was injected onto a SCIEX Triple Quad 6500 LC-MS/MS system using an APCI ion source in positive ion mode with a Shimadzu UFLC-20AD HPLC and a Phenomenex
# OPCs (OPC-1 derivation) = experiment: High-throughput screening of 3,000 bioactive small molecules for MBP+ oligodendrocyte formation; details: 2 μM, 72 h; for % Oligos: MBP+; for fold-change in % MBP + oligodendrocytes: relative to DMSO controls of the same plate
# Excerpt: Plates were imaged on the Operetta High Content Imaging and Analysis system (PerkinElmer) and a set of 6 fields captured from each well resulting in an average of 1200 cells being scored per well. Analysis (PerkinElmer Harmony and Columbus software) began by identifying intact nuclei stained by DAPI; that is, those traced nuclei that were larger than 300 μm^2 in surface area. Each traced nucleus region was then expanded by 50% and cross-referenced with the […] (MBP) stain to identify oligodendrocyte nuclei, and from this the percentage of oligodendrocytes was calculated. In some experiments, the total process length of MBP+ oligodendrocytes was calculated as previously described.
# EpiSC-derived OPCs were grown and expanded in poly-ornithine and laminin-coated flasks before harvesting for plating. Cells were dispensed in differentiation media supplemented with Noggin (R&D Systems; 100 ng/ml), Neurotrophin 3 (R&D Systems; 10 ng/ml), cAMP (Sigma; 50 μM), and IGF-1 (R&D Systems; 100 ng/ml)) using a Biotek EL406 Microplate Washer Dispenser (Biotek) equipped with 5 μL dispense cassette (Biotek), into poly-D-lysine/laminin (Sigma, L2020; 4 μg/ml)-coated sterile, 384-well, CellCarrier ultra plates (PerkinElmer), to a final density of 12,500 cells per well and allowed to attach for 45 min before addition of drug. A 3 mM stock of bioactive compound library in dimethylsulphoxide (DMSO) were prepared in an Abgene storage 384-well plate (ThermoFisher Scientific; AB1055). These were added to assay plates using a 50 nL solid pin tool attached to Janus automated workstation (Perkin Elmer), resulting in a final screening concentration of 2 μM. Cells were incubated at 37° C. for 1 hour and then T3 (Sigma; 40 ng/ml) was added to all wells except negative controls, to which FGF (20 ng/ml) was added instead. Negative controls and T3-alone were included in each assay plate. After incubation at 37° C. for 72 h, cells were fixed, washed and stained similar to 96-well OPC assay protocol, although all the washing steps were performed using a Biotek EL406 Microplate Washer Dispenser (Biotek) equipped with a 96-well aspiration manifold. Cells were stained with DAPI (Sigma; 1 μg/ml) and MBP antibody (Abeam, ab7349; 1:100). Plates were imaged on the Operetta High Content Imaging and Analysis system (PerkinElmer) and a set of 4 fields captured from each well resulting in an average of 700 cells being scored per well. Analysis was performed as in High-Content Imaging and Analysis, above. All plates for the primary screen were processed and analyzed simultaneously to minimize variability. Molecules causing more than 20% reduction in nuclear count relative to DMSO control wells were removed from consideration, and hits were called on the basis of largest fold-increase in percentage of MBP+ oligodendrocytes relative to DMSO controls within the same plate.
# OPCs = experiment: GC/MS-based sterol profiling in OPCs; type: cell-based, mouse; details: for sterol levels / sterol intermediate accumulation in OPCs: 24 h treatment (siRNA 96 h)
# EBP = biological target: T2, EBP (Mus musculus, UniProt P70245); experiment: EBP enzymatic assay (GC/MS); type: biochemical; details: 10 μM, zymostenol 25 μM
# T2 construct: active EBP was obtained from mouse microsomes; from tissue
# T2 sequence (P70245 1-230): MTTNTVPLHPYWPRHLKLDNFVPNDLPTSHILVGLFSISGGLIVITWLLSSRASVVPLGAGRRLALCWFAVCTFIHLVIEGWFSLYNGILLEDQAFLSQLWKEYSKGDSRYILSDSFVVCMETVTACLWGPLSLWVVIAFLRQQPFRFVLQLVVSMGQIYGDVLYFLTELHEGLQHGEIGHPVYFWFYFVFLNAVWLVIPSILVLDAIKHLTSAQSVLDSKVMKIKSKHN
# [1] = system: mouse epiblast stem cell-derived OPCs; experiment: In vitro phenotypic screening of OPCs (MBP+ oligodendrocytes at 72 h); type: cell-based
# Experimental: Then, 40,000 cells were seeded per well in differentiation medium and allowed to attach for 30 min before addition of drug. […] Sterols were added to cells as an ethanol solution (0.2% final ethanol concentration). […] Cells were incubated under standard conditions (37° C., 5% CO2) for 3 days and fixed with 4% paraformaldehyde (PFA) in phosphate buffered saline (PBS) for 20 min. Fixed plates were washed with PBS (200 μL per well) twice, permeabilized with 0.1% Triton X-100 and blocked with 10% donkey serum (v/v) in PBS for 40 min. […] Nuclei were visualized by DAPI staining (Sigma; 1 μg/ml).
# T47D cells = details: 5 days
# [2] = listed as Raloxifene hydrochloride, HCl
compound,measurement,setting,value
"OC(Cn1cncn1)(Cn1cncn1)c1ccc(F)cc1F [fluconazole, Fluconazole]",inhibition of mammalian CYP51 in vitro,rat CYP51,did not inhibit mammalian CYP51 in vitro
(±)-Vesamicol,cell viability (% relative to DMSO),OPCs (OPC-1 derivation),112.02%
same,% Oligos,OPCs (OPC-1 derivation),34.23%
CC(=O)N1CCN(c2ccc(OC[C@H]3CO[C@@](Cn4ccnc4)(c4ccc(Cl)cc4Cl)O3)cc2)CC1 (stereo in doubt) [S-trans-Ketoconazole],inhibition of mammalian CYP51 in vitro,rat CYP51,strikingly less effective at inhibiting mammalian CYP51
Clc1ccc(C(Cn2ccnc2)OCc2c(Cl)cccc2Cl)c(Cl)c1 (stereo not drawn) [Isoconazole nitrate],% Oligos,OPCs (OPC-1 derivation),53.25%
"CN1[C@@H]2CC[C@H]1C[C@@H](OC(c1ccccc1)c1ccccc1)C2 [benztropine, Benztropine]",sterol levels / sterol intermediate accumulation in OPCs,OPCs; GC/MS,induced accumulation of zymostenol and zymosterol and decreased basal sterol levels
same,inhibition of EBP enzymatic activity,EBP,clear inhibition
"COc1ccc(S(=O)(=O)N2CCC(N3CCC(C)CC3)CC2)cc1 [TASIN-1, Tasin-1]",formation of MBP+ oligodendrocytes from OPCs,[1],enhanced formation of MBP+ oligodendrocytes
same,inhibition of EBP enzymatic activity,EBP,clear inhibition
"CN(C)CCOc1ccc(/C(=C(/CCCl)c2ccccc2)c2ccccc2)cc1 [toremifene, Toremifene]",cholesterol pathway enzyme inhibited in OPCs (from sterol profile),"OPCs; GC/MS, 24 h",inhibited EBP
same,formation of MBP+ oligodendrocytes from OPCs,[1],enhanced MBP+ oligodendrocyte generation over a wide dose range
same,antiestrogen effects on estrogen-dependent growth,T47D cells,comparable antiestrogen effects
"CC(C)CCC[C@@H](C)[C@H]1CC[C@H]2[C@@H]3CC=C4C[C@@H](O)CC[C@]4(C)[C@H]3CC[C@]12C [cholesterol, Cholesterol]",formation of MBP+ oligodendrocytes from OPCs,[1],ineffective
"OCCOCCN1CCN(C(c2ccccc2)c2ccc(Cl)cc2)CC1 (stereo not drawn) [hydroxyzine, Hydroxyzine]",inhibition of EBP enzymatic activity,EBP,directly inhibiting EBP enzymatic activity
Clc1ccccc1C(c1ccccc1)(c1ccccc1)n1ccnc1 [Clotrimazole],% Oligos,OPCs (OPC-1 derivation),34.36% and 27.93%
same,fold-change in % MBP + oligodendrocytes,OPCs (OPC-1 derivation),5.88
Cl.Cl.OCCOCCN1CCN(C(c2ccccc2)c2ccc(Cl)cc2)CC1 (stereo not drawn) [Hydroxyzine 2HCl],cell viability (% relative to DMSO),OPCs (OPC-1 derivation),134.19%
same,% Oligos,OPCs (OPC-1 derivation),40.63%
same,fold-change in % MBP + oligodendrocytes,OPCs (OPC-1 derivation),4.80
"N[C@@H](Cc1cc(I)c(Oc2ccc(O)c(I)c2)c(I)c1)C(=O)O [liothyronine, Liothyronine]",sterol levels / sterol intermediate accumulation in OPCs,OPCs; GC/MS,minimal effects on sterol levels
Ifenprodil Tartrate,cell viability (% relative to DMSO),OPCs (OPC-1 derivation),103.79%
same,% Oligos,OPCs (OPC-1 derivation),41.41%
same,% Oligos,OPCs (OPC-1 derivation); listed as ifenprodil tartrate,33.69%
same,fold-change in % MBP + oligodendrocytes,OPCs (OPC-1 derivation),4.89
same,fold-change in % MBP + oligodendrocytes,OPCs (OPC-1 derivation); listed as ifenprodil tartrate,3.61
same,cell viability (% relative to DMSO),OPCs (OPC-1 derivation); listed as ifenprodil tartrate,106.02%
"OCCOc1ccc(/C(=C(/CCCl)c2ccccc2)c2ccccc2)cc1 [ospemifene, Ospemifene]",cholesterol pathway enzyme inhibited in OPCs (from sterol profile),OPCs,did not inhibit EBP in OPCs
same,formation of MBP+ oligodendrocytes from OPCs,[1],did not enhance differentiation to MBP+ oligodendrocytes
same,antiestrogen effects on estrogen-dependent growth,T47D cells,comparable antiestrogen effects
"CCC(C)(C)c1ccc(CC(C)CN2C[C@@H](C)O[C@@H](C)C2)cc1 (stereo partly drawn) [amorolfine, Amorolfine]",formation of MBP+ oligodendrocytes from OPCs,[1],enhanced formation of MBP+ oligodendrocytes
Cc1cc(NC(=O)Nc2ccc(N(C)C)cc2)c2cc(F)cc(F)c2n1 [SB408124],cell viability (% relative to DMSO),OPCs (OPC-1 derivation),106.19%
same,% Oligos,OPCs (OPC-1 derivation),39.63%
"CN1CCC[C@@H]1CCO[C@](C)(c1ccccc1)c1ccc(Cl)cc1 [clemastine, Clemastine]",sterol levels / sterol intermediate accumulation in OPCs,OPCs; GC/MS,induced accumulation of zymostenol and zymosterol and decreased basal sterol levels
C[C@]12CC[C@@H]3c4ccc(O)cc4C[C@@H](CCCCCCCCC[S+]([O-])CCCC(F)(F)C(F)(F)F)[C@H]3[C@@H]1CC[C@@H]2O (stereo partly drawn) [Fulvestrant],cholesterol pathway enzyme inhibited in OPCs (from sterol profile),"OPCs; GC/MS, 24 h",targeted CYP51
"CC(C)=CCC[C@@H](C)[C@H]1CC[C@@]2(C)C3=C(CC[C@]12C)[C@@]1(C)CC[C@H](O)C(C)(C)[C@@H]1CC3 [lanosterol, Lanosterol]",formation of MBP+ oligodendrocytes from OPCs,[1],enhanced formation of MBP+ oligodendrocytes in a dose-responsive fashion
CC(=O)N1CCN(c2ccc(OC[C@@H]3CO[C@](Cn4ccnc4)(c4ccc(Cl)cc4Cl)O3)cc2)CC1 (stereo in doubt) [R-trans-Ketoconazole],inhibition of mammalian CYP51 in vitro,rat CYP51,strikingly less effective at inhibiting mammalian CYP51
O=C(c1ccc(OCCN2CCCCC2)cc1)c1c(-c2ccc(O)cc2)sc2cc(O)ccc12 [Raloxifene HCl],% Oligos,OPCs (OPC-1 derivation); HCl,35.01%
same,% Oligos,OPCs (OPC-1 derivation); [2],33.33%
same,fold-change in % MBP + oligodendrocytes,OPCs (OPC-1 derivation); [2],3.77
"Cl.O[Si](CCCN1CCCCC1)(c1ccc(F)cc1)C1CCCCC1 (stereo not drawn) [Hexahydro-sila-difenidol hydrochloride, p-fluoro analog]",% Oligos,OPCs (OPC-1 derivation),26.76%
CCN(CC)CCCCCCCCOC(=O)c1cc(OC)c(OC)c(OC)c1.Cl [TMB-8 hydrochloride],cell viability (% relative to DMSO),OPCs (OPC-1 derivation),139.42%
same,% Oligos,OPCs (OPC-1 derivation),18.47%
"CC(C)CCC[C@@H](C)[C@H]1CC=C2C3=C(CC[C@@]21C)[C@@]1(C)CCC(O)CC1CC3 (stereo partly drawn) [14-dehydrozymostenol, cholesta-8,14-dien-β-ol]",formation of MBP+ oligodendrocytes from OPCs,[1],enhanced the formation of MBP+ oligodendrocytes
"Cl.Clc1ccc(N2CCN(Cc3c[nH]c4ncccc34)CC2)cc1 [L-745,870 hydrochloride]",% Oligos,OPCs (OPC-1 derivation),32.61%
Varenicline tartrate,cell viability (% relative to DMSO),OPCs (OPC-1 derivation),144.02%
same,% Oligos,OPCs (OPC-1 derivation),22.86%
"C=C(c1ccc(C(=O)O)cc1)c1cc2c(cc1C)C(C)(C)CCC2(C)C [bexarotene, Bexarotene]",sterol levels / sterol intermediate accumulation in OPCs,OPCs; GC/MS,minimal effects on sterol levels
"CC(C)CCC[C@@H](C)[C@H]1CC[C@H]2C3=C(CC[C@]12C)[C@@]1(C)CC[C@H](O)C[C@@H]1CC3 [zymostenol, Zymostenol]",formation of MBP+ oligodendrocytes from OPCs,[1],enhanced the formation of MBP+ oligodendrocytes
